Results taken from ChEMBL document CHEMBL1201862, “PubChem BioAssay data set” (2004).
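All cell lines were grown in 96-well plates and treated with compound for 48 hours. At the GI50, growth is halved.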 Calls of active or inactive are those of the source. Rule as the data show it: active = GI50 up to about 1.1 µM and inactive = higher.

Experiments:
Assay in all cases: NCI tumour cell line growth inhibition, 48 h
[1] = system: SF-268
[2] = system: SN12C
[3] = system: SF-295
[4] = system: SK-MEL-2
[5] = system: SK-OV-3
[6] = system: 786-0
[7] = system: UACC-62
[8] = system: OVCAR-4
[9] = system: COLO 205
[10] = system: NCI-H460
[11] = system: SK-MEL-5
[12] = system: TK-10
[13] = system: SK-MEL-28
[14] = system: OVCAR-5
[15] = system: SW-620
[16] = system: UO-31
[17] = system: Malme-3M
[18] = system: LXFL 529
[19] = system: MOLT-4
[20] = system: ACHN
[21] = system: U-251
[22] = system: M14
[23] = system: HCT-15
[24] = system: UACC-257
[25] = system: HT-29
[26] = system: A549
[27] = system: HOP-62
[28] = system: K562
[29] = system: DLD-1
[30] = system: IGROV-1
[31] = system: RPMI-8226
[32] = system: LOX IMVI
[33] = system: EKVX
[34] = system: KM12
[35] = system: A498
[36] = system: OVCAR-3
[37] = system: SR
[38] = system: HL-60
[39] = system: SNB-19
[40] = system: NCI-H522
[41] = system: CAKI-1
[42] = system: NCI-H23
[43] = system: DMS-273
[44] = system: NCI-H226
[45] = system: HCC 2998
[46] = system: SF-539
[47] = system: HCT-116
[48] = system: DMS-114
[49] = system: SNB-75
[50] = system: CCRF-CEM
[51] = system: OVCAR-8
[52] = system: SNB-78
[53] = system: KM-20L2
[54] = system: HOP-92
[55] = system: NCI/ADR-RES
[56] = system: MCF7

In the case of `CCOC(=O)C(NC(=O)c1ccc(/N=N/N(C)C)cc1)C(C)C` (centres undefined), the GI50 [1] is reported as > 100 µM (inactive), the GI50 [2] is reported as > 100 µM (inactive) and the GI50 [3] is reported as > 100 µM (inactive). The GI50 [4] was > 100 µM (inactive), the GI50 [5] was > 100 µM (inactive) and the GI50 [6] was > 100 µM (inactive). The GI50 [7] was > 100 µM (inactive), the GI50 [8] was > 100 µM (inactive) and the GI50 [9] was > 100 µM (inactive). The GI50 [10] was > 100 µM (inactive), the GI50 [11] was > 100 µM (inactive) and the GI50 [12] was 54.2 µM (inactive). For the same compound, the GI50 [13] was > 100 µM (inactive), the GI50 [14] was > 100 µM (inactive) and the GI50 [15] was > 100 µM (inactive). For the same compound, the GI50 [16] was > 100 µM (inactive), the GI50 [17] was > 100 µM (inactive) and the GI50 [18] was > 100 µM (inactive). The GI50 [19] was > 100 µM (inactive), the GI50 [20] was > 100 µM (inactive) and the GI50 [21] was 31 µM (inactive). The GI50 [22] was > 100 µM (inactive), the GI50 [23] was greater than 100 µM and the GI50 [24] was > 100 µM (inactive). For the same compound, the GI50 [25] was > 100 µM (inactive), the GI50 [26] was > 100 µM (inactive) and the GI50 [27] was > 100 µM (inactive). The GI50 [28] was > 100 µM (inactive), the GI50 [29] was > 100 µM (inactive) and the GI50 [30] was > 100 µM (inactive). For the same compound, the GI50 [31] was > 100 µM (inactive), the GI50 [32] was > 100 µM (inactive) and the GI50 [33] was > 100 µM (inactive). For the same compound, the GI50 [34] was > 100 µM (inactive), the GI50 [35] was > 100 µM (inactive) and the GI50 [36] was > 100 µM (inactive). For the same compound, the GI50 [37] was > 100 µM (inactive), the GI50 [38] was > 100 µM (inactive) and the GI50 [39] was > 100 µM (inactive). For the same compound, the GI50 [40] was > 100 µM (inactive), the GI50 [41] was > 100 µM (inactive) and the GI50 [42] was > 100 µM (inactive). The GI50 [43] was > 100 µM (inactive), the GI50 [44] was > 100 µM (inactive) and the GI50 [45] was > 100 µM (inactive). For the same compound, the GI50 [46] was > 100 µM (inactive), the GI50 [47] was > 100 µM (inactive) and the GI50 [48] was > 100 µM (inactive). The GI50 [49] was > 100 µM (inactive), the GI50 [50] was > 100 µM (inactive) and the GI50 [51] was > 100 µM (inactive).

`COC(=O)C1C(O)C(C)C(O)C(C)/C=C\C=C(C)C(=O)Nc2c(C)c(OC(C)=O)c3c(c2O)C(=O)C(C)=C2OCOC(=C23)C(C)=CC(C)(O)C(O)C(C)C1O` (centres undefined) was tested, and the GI50 [1] was 43.9 µM (inactive), the GI50 [3] was 62.5 µM (inactive) and the GI50 [52] was 41.4 µM (inactive). The GI50 [4] was 18.1 µM (inactive), the GI50 [5] was > 75 µM (inactive) and the GI50 [9] was 17.4 µM (inactive). For the same compound, the GI50 [11] was 40 µM (inactive), the GI50 [13] was 26.6 µM (inactive) and the GI50 [14] was > 75 µM (inactive). For the same compound, the GI50 [15] was 25 µM (inactive), the GI50 [16] was 72.6 µM (inactive) and the GI50 [17] was 45.4 µM (inactive). The GI50 [21] was 60.4 µM (inactive), the GI50 [24] was 32.1 µM (inactive) and the GI50 [25] was 21.7 µM (inactive). For the same compound, the GI50 [27] was > 75 µM (inactive), the GI50 [53] was 34 µM (inactive) and the GI50 [54] was 60.1 µM (inactive). For the same compound, the GI50 [29] was 18.3 µM (inactive), the GI50 [30] was > 75 µM (inactive) and the GI50 [55] was 56.9 µM (inactive). For the same compound, the GI50 [35] was 63.1 µM (inactive), the GI50 [36] was 42.4 µM (inactive) and the GI50 [38] was 18.7 µM (inactive). The GI50 [39] was > 75 µM (inactive), the GI50 [41] was 33.7 µM (inactive) and the GI50 [43] was 52.6 µM (inactive). For the same compound, the GI50 [44] was 61.7 µM (inactive), the GI50 [46] was > 60.5 µM (inactive) and the GI50 [47] was 26.4 µM (inactive). For the same compound, the GI50 [56] was 20.1 µM (inactive), the GI50 [48] was 19.7 µM (inactive) and the GI50 [51] was 28.6 µM (inactive).
